Experimental data taken from ChEMBL document CHEMBL1127336, “P1 aspartate-based peptide alpha-((2,6-dichlorobenzoyl)oxy)methyl ketones as potent time-dependent inhibitors of interleukin-1 beta-converting enzyme” (J Med Chem, 1994).

Experiments:
[1] = biological target: Cathepsin B (Bos taurus) (UniProt P07688); assay: Compound was evaluated for the ability to inhibit cathepsin B purified from bovine spleen
[2] = biological target: T1, Caspase-1 (Homo sapiens) (UniProt P29466); assay: Compound was evaluated for the ability to inhibit Interleukin-1-beta-converting enzyme (ICE) purified from THP-1 cells
T1 sequence (whole entry): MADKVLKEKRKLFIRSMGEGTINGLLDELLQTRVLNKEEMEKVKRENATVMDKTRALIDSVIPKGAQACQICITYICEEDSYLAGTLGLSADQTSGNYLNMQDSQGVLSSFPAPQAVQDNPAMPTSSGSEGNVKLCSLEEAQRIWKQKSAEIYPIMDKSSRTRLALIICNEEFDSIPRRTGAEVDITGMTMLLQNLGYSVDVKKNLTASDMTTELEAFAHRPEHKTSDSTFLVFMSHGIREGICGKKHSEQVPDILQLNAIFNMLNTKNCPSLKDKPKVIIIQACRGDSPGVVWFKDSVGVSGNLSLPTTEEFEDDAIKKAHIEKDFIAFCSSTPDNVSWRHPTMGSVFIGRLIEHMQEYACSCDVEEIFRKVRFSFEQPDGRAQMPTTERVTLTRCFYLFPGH

[3] = Selectivity (ICE:cathepsin) of the compound; 108:1
[4] = biological target: T1, Caspase-1 (Homo sapiens); assay: Compound was evaluated for the ability to inhibit Interleukin-1-beta-converting enzyme (ICE) purified from THP-1 cells; […]
[5] = Selectivity (ICE:cathepsin) of the compound; 700:1

| k obs / 1 [1] | k obs / 1 [2] | Selectivity [3] | k obs / 1 [4] | Selectivity [5] | SMILES |
| --- | --- | --- | --- | --- | --- |
| 380 M⁻¹ s⁻¹ | 41000 M⁻¹ s⁻¹ | 108 | – | – | CC(C)C(NC(=O)OCc1ccccc1)C(=O)N[C@@H](CC(=O)O)C(=O)COC(=O)c1c(Cl)cccc1Cl (some centres not stated) |
| – | – | – | No inhibition | – | O=C(O)CC[C@H](NC(=O)OCc1ccccc1)C(=O)COC(=O)c1c(Cl)cccc1Cl |
| 2250 M⁻¹ s⁻¹ | – | – | – | – | CC(C)[C@H](NC(=O)OCc1ccccc1)C(=O)N[C@@H](C)C(=O)N[C@@H](CC(=O)O)C(=O)COC(=O)c1c(Cl)cccc1Cl |
| < 10 M⁻¹ s⁻¹ | – | – | – | > 700 | O=C(O)C[C@H](NC(=O)OCc1ccccc1)C(=O)COC(=O)c1c(Cl)cccc1Cl |
